In the OligoGym collection:
After the bases stand the sugars from the 5' end (letter, count) and the backbone: PS all phosphorothioate, else s phosphorothioate and o phosphodiester by linkage. Methylation of C is not given here. e = 2'-O-(2-methoxyethyl) (MOE); k = constrained ethyl (cEt); d = 2'-deoxy (DNA); m = 2'-O-methyl

Target: HSD17B13
Conditions: ASO, HepaRG

Sequence | target mRNA inhibition (1 µM) | other results
TCATAAAAATCGCTGC (sugars k3 d10 k3, PS) | 26% | 
TCATAAACATAGGCTT (sugars k3 d10 k3, PS) | 58% | 
TCATAGTGGACTTCAT (sugars kkdddddddddkekek, PS) | 48% | 
TCATTAGGAAAAGTGT (sugars k3 d10 k3, PS) | 16% | 
TCATTCGAATTTCTTC (sugars k3 d10 k3, PS) | 76% | target mRNA inhibition (0.02 µM): 16%; target mRNA inhibition (0.078 µM): 31%; target mRNA inhibition (0.313 µM): 54%; target mRNA inhibition (1.25 µM): 79%; target mRNA inhibition (5 µM): 90%
TCCAAAGATGAGAGTC (sugars k3 d10 k3, PS) | 17% | 
TCCAAGTAATTACTTC (sugars k3 d10 k3, PS) | 72% | target mRNA inhibition (0.02 µM): 0%; target mRNA inhibition (0.078 µM): 3%; target mRNA inhibition (0.313 µM): 23%; target mRNA inhibition (1.25 µM): 43%; target mRNA inhibition (5 µM): 67%
TCCACACCGCGCTTAT (sugars k3 d10 k3, PS) | 32% | 
TCCAGGTTGAGATAAA (sugars k3 d10 k3, PS) | 70% | 
TCCATAATAATAGCTC (sugars k3 d9 k3 e1, PS) | 66% | 
TCCATCATCGATGGAA (sugars k3 d10 k3, PS) | 31% | 
TCCATTATCCTTACTC (sugars k3 d10 k3, PS) | 15% | 
TCCCTGTGTAAATAAG (sugars k3 d10 k3, PS) | 35% | 
TCCGTTATAAGTTTCA (sugars k3 d10 k3, PS) | 65% | 
TCCTAGGGAGGAGGTA (sugars k3 d10 k3, PS) | 33% | 
TCCTTGTGTAGTCCTA (sugars k3 d10 k3, PS) | 61% | 
TCGAAACTATTCATAT (sugars k3 d10 k3, PS) | 64% | 
TCGAATCATTAAGCTT (sugars k3 d10 k3, PS) | 34% | 
TCGATGGAAGAAGTGC (sugars k3 d10 k3, PS) | 34% | 
TCGCCTAAAGGAGATC (sugars k3 d10 k3, PS) | 70% | 
TCTAAAGCAGGCTACT (sugars k3 d10 k3, PS) | 32% | 
TCTAAAGGGCTGCTCT (sugars k3 d10 k3, PS) | 33% | 
TCTAAATTACTCCGTT (sugars k3 d10 k3, PS) | 15% | 
TCTAAATTATTGCCTG (sugars k3 d10 k3, PS) | 43% | 
TCTATTATGCACTCTA (sugars k3 d10 k3, PS) | 55% | 

Sequence | target mRNA inhibition (1 µM) | other results
TCTCTTGACAATGGTT (sugars kkdddddddddkekek, PS) | 70% | target mRNA inhibition (0.02 µM): 15%; target mRNA inhibition (0.078 µM): 25%; target mRNA inhibition (0.313 µM): 43%; target mRNA inhibition (1.25 µM): 71%; target mRNA inhibition (5 µM): 70%
TCTCUTAGCTGTGCAC (sugars k3 d1 m1 d8 k3, PS) | 49% | 
TCTGATGTCAGACCTC (sugars k3 d10 k3, PS) | 42% | 
TCTGATTACAGCATCA (sugars k3 d10 k3, PS) | 48% | 
TCTGGGACCAAGGATA (sugars k3 d1 m1 d8 k3, PS) | 31% | 
TCTGGGACCAAGGATA (sugars kkdddddddddkekek, PS) | 56% | 
TCTGTGGCATGGCTAC (sugars k3 d10 k3, PS) | 67% | 
TCTTAAACCTTCCCTG (sugars k3 d9 k3 e1, PS) | 38% | 
TCTTAAGATACCCAGG (sugars k3 d1 m1 d8 k3, PS) | 51% | 
TCTTAAGATACCCAGG (sugars kkdddddddddkekek, PS) | 35% | 
TCTTAATTACATTCCC (sugars k3 d10 k3, PS) | 64% | 
TCTTACATGATTAAGC (sugars k3 d10 k3, PS) | 35% | 
TCTTACGACTTCATCT (sugars k3 d10 k3, PS) | 34% | 
TCTTAGCTGTGCACTC (sugars kkdddddddddkekek, PS) | 50% | 
TCTTATGTAATAGCCA (sugars k3 d1 m1 d8 k3, PS) | 64% | 
TCTTATGTAATAGCCA (sugars k3 d9 k3 e1, PS) | 76% | target mRNA inhibition (0.02 µM): 15%; target mRNA inhibition (0.078 µM): 18%; target mRNA inhibition (0.313 µM): 25%; target mRNA inhibition (1.25 µM): 65%; target mRNA inhibition (5 µM): 84%
TCTTATGTAATAGCCA (sugars kkdddddddddkekek, PS) | 65% | 
TCTTCATCCTTGGTGC (sugars k3 d10 k3, PS) | 48% | 
TCTTGACAATGGTTGA (sugars k3 d1 m1 d8 k3, PS) | 56% | 
TCTTGATGTAGTGGGA (sugars k3 d10 k3, PS) | 44% | 
TCTTTAGTCAACAGTA (sugars k3 d10 k3, PS) | 68% | 
TGAACAGTCTTAAACC (sugars k3 d10 k3, PS) | 56% | 
TGAACTGAAACGATCC (sugars k3 d10 k3, PS) | 58% | 
TGAAGTTAGTATAGTT (sugars k3 d1 m1 d8 k3, PS) | 62% | 
TGAATGTAAAGGCTGG (sugars k3 d10 k3, PS) | 38% | 

Sequence | target mRNA inhibition (1 µM) | other results
TGACAATGGTTGATAG (sugars kkdddddddddkekek, PS) | 37% | 
TGAGAACAATCTCCCC (sugars k3 d10 k3, PS) | 69% | target mRNA inhibition (0.02 µM): 12%; target mRNA inhibition (0.078 µM): 30%; target mRNA inhibition (0.313 µM): 57%; target mRNA inhibition (1.25 µM): 84%; target mRNA inhibition (5 µM): 90%
TGAGATTACCCCTGGC (sugars k3 d10 k3, PS) | 53% | 
TGAGCCTAAAATTGTC (sugars k3 d10 k3, PS) | 30% | 
TGAGCTAGACAATTGC (sugars k3 d10 k3, PS) | 78% | 
TGAGTAGTGTAAGCTG (sugars k3 d10 k3, PS) | 62% | 
TGATATGTCAATACTC (sugars k3 d10 k1 d1 k1, PS) | 57% | 
TGATATTCTGTGGCAT (sugars k3 d1 m1 d8 k3, PS) | 61% | 
TGATATTCTGTGGCAT (sugars kkdddddddddkekek, PS) | 46% | 
TGATTTAGAGAGCGAT (sugars k3 d10 k3, PS) | 35% | 
TGATTTTGACCTTACC (sugars k3 d10 k3, PS) | 11% | 
TGATUGAGTTCTCCAC (sugars k3 d1 m1 d8 k3, PS) | 4% | 
TGCAACTTTTAGTCAG (sugars k3 d10 k3, PS) | 41% | 
TGCAATGAGATTACCC (sugars k3 d10 k3, PS) | 54% | 
TGCACCGTTTTGGGCT (sugars k3 d1 m1 d8 k3, PS) | 55% | 
TGCACCGTTTTGGGCT (sugars k3 d9 k3 e1, PS) | 43% | 
TGCACCGTTTTGGGCT (sugars k3 d10 k3, PS) | 36% | 
TGCACCGTTTTGGGCT (sugars kkdddddddddkekek, PS) | 29% | 
TGCAGCATTGATTCGA (sugars k3 d9 k3 e1, PS) | 52% | 
TGCATAAGAGCCAAAC (sugars k3 d10 k3, PS) | 56% | 
TGCCAAACCAATGTTT (sugars k3 d1 m1 d8 k3, PS) | 35% | 
TGCCAAACCAATGTTT (sugars k3 d9 k3 e1, PS) | 43% | 
TGCCAAGCTTTGTGTC (sugars k3 d10 k3, PS) | 38% | 
TGCCCCGAATTATTTC (sugars k3 d10 k3, PS) | 3% | 
TGCTACTTGAACAGTC (sugars k3 d9 k3 e1, PS) | 68% | 

Sequence | target mRNA inhibition (1 µM) | other results
TGCTAGTAATTGCATC (sugars k3 d10 k3, PS) | 17% | 
TGCTAGTGCCAAACCA (sugars k3 d1 m1 d8 k3, PS) | 80% | target mRNA inhibition (0.02 µM): 7%; target mRNA inhibition (0.078 µM): 29%; target mRNA inhibition (0.313 µM): 46%; target mRNA inhibition (1.25 µM): 67%; target mRNA inhibition (5 µM): 90%
TGCTGCATTAATGCCA (sugars k3 d1 m1 d8 k3, PS) | 32% | 
TGCTGCATTAATGCCA (sugars k3 d10 k3, PS) | 15% | 
TGCTGCTAGTGCCAAA (sugars k3 d9 k3 e1, PS) | 56% | 
TGCTGCTAGTGCCAAA (sugars kkdddddddddkekek, PS) | 40% | 
TGCTTACGACAGGTCA (sugars k3 d10 k3, PS) | 81% | target mRNA inhibition (0.02 µM): 0%; target mRNA inhibition (0.078 µM): 21%; target mRNA inhibition (0.313 µM): 57%; target mRNA inhibition (1.25 µM): 70%; target mRNA inhibition (5 µM): 90%
TGCTTTAGCTTAAACT (sugars k3 d10 k3, PS) | 51% | 
TGGCTATAGTAATTGC (sugars k3 d10 k3, PS) | 34% | 
TGGCTTAATGTTCAGT (sugars k3 d10 k3, PS) | 50% | 
TGGGAAATTGTTGCTG (sugars k3 d10 k3, PS) | 38% | 
TGGGACCAAGGATATA (sugars kkdddddddddkekek, PS) | 30% | 
TGGGAGTCGGATTATT (sugars k3 d10 k3, PS) | 44% | 
TGGGATACTATTCTCC (sugars k3 d10 k3, PS) | 18% | 
TGGGTCCATTGTTTCT (sugars k3 d10 k3, PS) | 35% | 
TGGTAACGGTGATCAA (sugars k3 d1 m1 d8 k3, PS) | 41% | 
TGGTAACGGTGATCAA (sugars kkdddddddddkekek, PS) | 26% | 
TGTAAGAGTCAGTATC (sugars k3 d1 m1 d8 k3, PS) | 29% | 
TGTAAGAGTCAGTATC (sugars kkdddddddddkekek, PS) | 35% | 
TGTAATAGCCAGTACA (sugars k3 d9 k3 e1, PS) | 34% | 
TGTAATAGCCAGTACA (sugars kkdddddddddkekek, PS) | 45% | 
TGTAATTGGCTCTTGA (sugars k3 d10 k3, PS) | 0% | 
